“Also recorded” adds a separate entry of the source.
Legend:
Type in all cases: in vivo, human cells in mice
[1] = system: Caki-1 human renal cancer cells; experiment: Caki-1 renal tumour xenograft, combination with 5-FU or vinblastin (1.3)
Excerpt: All treatments were stopped at day 22. […] All treatments were stopped at day 32. […] All treatments were stopped at day 36.

[2] = system: MDA-MB435-To.1 human Taxol-resistant breast adenocarcinoma cells; experiment: MDA-MB435-To.1 Taxol-resistant breast adenocarcinoma, fat pad, CB-17 SCID mice, combination with Cisplatin (2.6); conditions: SEQ ID NO:1 10 mg/kg i.v. every other day
Procedure: (§1) BxPC-3 is a gemcitabine resistant call line. […] Gemcitabine was administered intravenously every three days at a dose of 100 mg/kg. Antitumour activities were estimated by the inhibition of tumour volume, which was measured with caliper. Each point represents mean tumour volume calculated from 10 animals per experimental group. […] Hela S3 is a hydroxyurea resistant cell line. […] Hydroxyurea was administered intraperitoneally every day at a dose of 250 mg/kg for 10 days. Cisplatin was administered intravenously once a week for three weeks at a dose of 4 mg/kg. Antitumour activities were estimated by the inhibition of tumour volume, which was measured with caliper. Each point represents mean tumour volume calculated from 10 animals per experimental group. […] Cisplatin was administered intravenously once a week for three weeks at a dose of 4 mg/kg. Taxol was administered intravenously once a week for three weeks at a dose of 10 mg/kg. Antitumour activities were estimated by the inhibition of tumour volume, which was measured with caliper. Each point represents mean tumour volume calculated from 10 animals per experimental group. […] Taxol was administered i.p. once a week at a dose of 10 mg/kg. Antitumour activities were estimated by the inhibition of tumour volume (FIG. 12A), which was measured with calipers. Each point represents mean tumour volume calculated from 10 animals per experimental group. […] Antitumour activities were estimated by the inhibition of tumour volume, which was measured with caliper. Each point represents mean tumour volume calculated from 9-10 animals per experimental group. […] Antitumour activities were estimated by the inhibition of tumour volume, which was measured with caliper. Each point represents mean tumour volume calculated from 10 animals per experimental group. […] Anti-tumour activity was estimated by the inhibition of tumour volume, which was measured with caliper. Each point represents mean tumour volume calculated from 10 animals per experimental group. […] Antitumour activities were estimated by the inhibition of tumour volume, which was measured with caliper. […]

[3] = system: Human taxol-resistant promyelocytic leukaemia cells (HL-60); experiment: HL-60 taxol-resistant promyelocytic leukaemia tumour in SCID mice (2.7); conditions: SEQ ID NO:1 10 mg/kg i.v. every other day
Procedure: BxPC-3 is a gemcitabine resistant call line. […] Gemcitabine was administered intravenously every three days at a dose of 100 mg/kg. Antitumour activities were estimated by the inhibition of tumour volume, which was measured with caliper. Each point represents mean tumour volume calculated from 10 animals per experimental group. […] Hela S3 is a hydroxyurea resistant cell line. […] Hydroxyurea was administered intraperitoneally every day at a dose of 250 mg/kg for 10 days. Cisplatin was administered intravenously once a week for three weeks at a dose of 4 mg/kg. Antitumour activities were estimated by the inhibition of tumour volume, which was measured with caliper. Each point represents mean tumour volume calculated from 10 animals per experimental group. […] Cisplatin was administered intravenously once a week for three weeks at a dose of 4 mg/kg. Taxol was administered intravenously once a week for three weeks at a dose of 10 mg/kg. Antitumour activities were estimated by the inhibition of tumour volume, which was measured with caliper. Each point represents mean tumour volume calculated from 10 animals per experimental group. […] Taxol was administered i.p. once a week at a dose of 10 mg/kg. Antitumour activities were estimated by the inhibition of tumour volume (FIG. 12A), which was measured with calipers. Each point represents mean tumour volume calculated from 10 animals per experimental group. Animals were sacrificed and tumour weights taken at the end of the study (FIG. 12C). […] Cisplatin was administered intravenously once a week for four weeks at a dose of 4 mg/kg. Taxol was administered intravenously once a week for four weeks at a dose of 20 mg/kg. Antitumour activities were estimated by the inhibition of tumour volume, which was measured with caliper. Each point represents mean tumour volume calculated from 9-10 animals per experimental group. […] Cisplatin was administered intravenously once a week for four weeks at a dose of 4 mg/kg. Antitumour activities were estimated by the inhibition of tumour volume, which was measured with caliper. Each point represents mean tumour volume calculated from 10 animals per experimental group. At the end of the study the animals were sacrificed and tumours weighed. […] Taxol was administered i.p. once a week at a dose of 10 mg/kg. Anti-tumour activity was estimated by the inhibition of tumour volume, which was measured with caliper. Each point represents mean tumour volume calculated from 10 animals per experimental group. […] Antitumour activities were estimated by the inhibition of tumour volume, which was measured with caliper. Each point represents mean tumour volume calculated from 10 animals per experimental group. Tumour weights were measured after animals were sacrificed at the end of the treatment. […]

[4] = system: LS513 multi-drug resistant colon carcinoma cells; experiment: LS513 multi-drug resistant colon carcinoma xenograft in SCID mice, combination with CPT-11 (2.8); conditions: SEQ ID NO:1 10 mg/kg i.v. every other day, CPT-11 20 mg/kg/day i.p. 5 days
Procedure: as §1

Substance: 5′-GGCTAAATCGCTCCACCAAG-3′ (all phosphorothioate, sugars by position and methylation of C not given here) [SEQ ID NO: 1, fully phosphorothioated antisense oligonucleotide that hybridizes to the coding region of R2 mRNA]
- Tumour weight as % of saline control ([1]; Caki (renal), CD-1 mouse as printed, SEQ ID NO:1 10 mg/kg i.v. every other day, 5-FU 13 mg/kg/day i.p., vinblastin 0.6 mg/kg/week i.p.): 3.3%
- Antitumour effect (tumour weight, FIG. 3A) ([1]; Caki-1, SCID mice, SEQ ID NO:1 10 mg/kg i.v. every other day, 5-FU 13 mg/kg/day i.p., vinblastin 0.6 mg/kg/week i.p.): significant delay of tumour growth compared to saline control; also recorded: superior to the inhibitory effects observed with each of two chemotherapeutic compounds
- Inhibition of tumour size ([1]; Human Renal Carcinoma^2 (second entry of Table 5)): Approximately 97% inhibition of tumour size
- Tumour weight as % of saline control ([2]; MDA-MB435-To.1 (breast), Taxol resistant, CB-17/SCID, Cisplatin 4 mg/kg i.v. weekly x4): 37%
- Antitumour effect (FIG. 14) ([2]; MDA-MB435-To.1 Taxol-resistant, CB-17 SCID mice, Cisplatin 4 mg/kg i.v. weekly): significant reduction of tumour weight compared to saline control; also recorded: superior to the inhibitory effects observed with Cisplatin
- Tumour weight as % of saline control ([3]; HL-60 (leukemia), Taxol resistant, SCID, Taxol 10 mg/kg i.p. weekly): 38%
- Antitumour effect (FIG. 15) ([3]; HL-60 taxol-resistant, SCID mice, taxol 10 mg/kg i.p. weekly): significant reduction of tumour weight compared to saline control
- Tumour weight as % of saline control ([4]; LS513 (colon) multi-drug resistant (CPT-11 sensitive), SCID): 49%
- Antitumour effect (FIG. 16) ([4]; LS513, SCID mice): significant delay of tumour growth compared to saline control; also recorded: as effective as CPT-11
